Experimental data from patent US20100197616A1, “Proliferation inhibitor of helicobacter pylori including alpha-n-acetyl-glucosaminyl bond-containing monosaccharide derivatives” (THE NOGUCHI INSTITUTE, priority 2007, published 2010).

Tests used:
H. pylori (ATCC 43504) = assay: H. pylori-proliferation inhibitory effect (OD 600 nm versus negative control); assay type: cell-based, Helicobacter pylori
Description: The effect of GlcNAc alpha-O-Et on H. pylori was confirmed according to the following procedures. Bacterial cells of H. pylori (ATCC 43504) stored in a brucella broth culture medium frozen at −80° C. were cultured in the same culture medium (3 mL) supplemented with 10% equine serum at 35° C. in the presence of 15% CO2 for 40 hours according to the shaking culture technique, the movement of bacterial cells was observed under a microscope and non-coccoid type bacterial cells of H. pylori were recovered. The culture medium was inspected for the OD values at 600 nm, followed by the dilution thereof with Muller-Hinton culture medium supplemented with 5.5% equine serum such that the number of bacterial cells present therein was equal to 4×10^7, and 3 mL thereof in total was cultured at 35° C. in the presence of 15% CO2 for 24 hours according to the shaking culture technique, followed by the confirmation by a microscope to thus give an H. pylori-containing culture medium (bacterial cell density: 2×10^7/mL) used in the test for the confirmation of the effect of the foregoing compound. On the other hand, there were prepared Muller-Hinton culture mediums (free of any bacterial cell of H. pylori) each containing 902.6 μM to 14.4 mM of the foregoing GlcNAc alpha-O-Et and supplemented with 5% equine serum, each of the resulting culture mediums was added to the foregoing H. pylori-containing culture medium in a mixing ratio of 1:1 (by volume) (total volume: 100 μL each; on a 96-well plate), followed by the mixing thereof and the subsequent cultivation at 35° C. in the presence of 15% CO2 for 96 hours. After the cultivation thereof over a predetermined period of time, the bacterial cell density thus proliferated was determined by the determination of the OD values at 600 nm, followed by the comparison of the result observed for the sample to which the candidate compound was added with that observed for the negative control free of any candidate compound (the control depicted in FIG. 1) to thus evaluate the proliferation inhibitory effect of the compound. In this respect, 1 U herein means 2.9 μmol/mL. The effect of GlcNAc alpha-cholestanol on H. pylori was confirmed according to the following procedures. Bacterial cells of H. pylori (ATCC 43504) stored in a brucella broth culture medium frozen at −80° C. were cultured in the same culture medium (3 mL) supplemented with 10% equine serum at 35° C. in the presence of 15% CO2 for 40 hours according to the shaking culture technique, the movement or behavior of bacterial cells was observed under a microscope and non-coccoid type bacterial cells of H. pylori were recovered. […]

[1] = Decomposition in culture mediums and the stomach; conditions: within the culture mediums and the stomach

Row | SMILES | proliferation ability of H. pylori (H. pylori (ATCC 43504); culture medium containing not less than 1.8 mM) | inhibition of the proliferation of H. pylori (H. pylori (ATCC 43504); culture medium containing not less than 7.2 mM) | H. pylori proliferation inhibited (H. pylori (ATCC 43504); not less than 625 mU/mL (1.8 mM), FIG. 1, cultivation up to 96 hours) | decomposition (stability) [1] | inhibition at 180 µM (H. pylori (ATCC 43504); Helicobacter pylori, ATCC43504, at least 62.5 mU/mL (180 μM, nominal, insoluble fraction filtered off), within 1.5 to 2 days, FIG. 2) [%]
1 | CCO[C@H]1OC(CO)[C@@H](O)[C@H](O)C1NC(C)=O (stereo partly drawn) [Compound 1, Ethoxy 2-acetamide-2-deoxy-N-acetyl-alpha-D-glucosaminide] | not more than 50% | completely inhibit | not less than 50% | never decomposed | 
2 | CC(=O)NC1[C@@H](O[C@H]2CC[C@@]3(C)C(CCC4C3CC[C@@]3(C)C4CC[C@@H]3[C@H](C)CCCC(C)C)C2)OC(CO)[C@@H](O)[C@@H]1O (stereo partly drawn) [Compound 2, 3-beta-Cholestanyl-2-Acetamide-2-Deoxy-N-Acetyl-alpha-D-Glucosaminide] |  |  |  |  | 40 to 50
